According to patent publication US11806314B2, “PDE5 inhibitor powder formulations and methods relating thereto” (Respira Therapeutics, Inc., priority 2013, dated 2023):
Structures can show the parent of a compound that is named as a salt. Blank lines part the entries; values can stand above or below the compound they belong to.

How the values were obtained:
Assay type in all cases: physicochemical
[1] = Aerosol performance, Next Generation Impactor (NGI) with powder deaggregator and RS01 capsule piercing mechanism; conditions: pure drug (100% API)
Description: There are several inertia sampling apparatuses that can be used to assess aerosol performance of dry powder formulations. (<601> Aerosols, Nasal Sprays, Metered-Dose Inhalers, and Dry Powder Inhalers Monograph, in USP 29-NF 24 The United States Pharmacopoeia and The National Formulary: The Official Compendia of Standards. 2006, The United States Pharmacopeial Convention, Inc.: Rockville, Md. p. 2617-2636 (“USP<601>”).) These apparatus classify aerosol particles on the basis of the particles' aerodynamic diameter. Each stage of the impactor includes a single or series of nozzles with specific cutoff size. Particles are entrained into the apparatus. Those having sufficient inertia will impact on that particular stage collection plate, while smaller particles with insufficient inertia will remain entrained in the airstream and pass to the next stage where the process is repeated. The aerodynamic size distribution of API can be assessed by collecting the deposited API mass and the ED %, RF %, FPF % and MMAD (μm) can be calculated from the API deposition pattern. The emitted dose fraction (ED (%); Eq. 4) is determined as the percentage powder mass emitted from the initial dosing chamber/capsule relative to the total dose in capsules (nominal dose) (TD). Emitted dose (ED) includes the sum of the API mass […] deposited on the device stages. Fine particle fraction (FPF (%); Eq. 5) is expressed as a percentage of fine particle dose (FPD) below a certain aerodynamic cutoff size to ED. Respirable fraction (RF (%); Eq. 6) is defined as the percentage of FPD to total dose (TD).
Formulation aerosol performance tests were carried out using a powder deaggregator modified from that described in U.S. Patent Publication Nos. 2013/0340754 and 2013/0340747 combined with an off-the-shelf RS01 dry powder inhaler capsule piercing mechanism (Plastiape, IT) feeding method. […] The experiments were conducted at an airflow rate that gave a system pressure drop of 2 kPa (about 40 L/min, 4 L inhalation volume duration: 5.5 sec) or 4 kPa (about 60 L/min, 4 L inhalation volume duration: 3.9 sec).
Packaging: The blends were packaged into size 3 HPMC capsules. Nominal dose amounts of 3 mg were prepared for each formulation; 10 mg nominal doses were also prepared for pure drug VarBase and Var(HCl)2·xH2O formulations.
Methods: Two inertial sampling systems were used to assess aerosol performance: (1) a Next Generation Impactor® (“NGI”) (Copley Scientific, Shoreview, Minn.), and (2) a Twin Stage Liquid Impinge (“TSLI”) (Copley Scientific, Shoreview, Minn.). Aerosol performance of the VarHCl·xH2O formulation was assessed using the TSLI device, while the other formulations were all assessed using the NGI device. The NGI experiments were carried out using methods in general agreement with the USP<601>, and the TSLI experiments were carried using methods in general agreement with the British Pharmacopoeia, 2007, Vol. IV, Appendix XIIF. A291 Aerodynamic assessment of fine particles, fine particle dose and particle size distribution. The NGI experiments were run at a controlled airflow rate that gave a pressure drop of either 2 or 4 kPa across the device. Specifically, at Q=61.4 L/min with a delay time of 3.9 sec; and at Q=43.4 L/min with a delay time of 5.5 sec. Before the aerosol testing, the NGI collection plates were coated with suitable coating. Mass median aerodynamic diameter (MMAD) of aerosol particles distribution was determined based on a log-probability distribution (API particle size versus API deposition percentage) obtained from the NGI data. The TSLI experiments were run at Q=60 L/min, 4 sec to achieve ΔP≈4 kPa, with a cutoff size of 6.4 μm.

[2] = Particle size analysis of micronized APIs by laser diffraction; conditions: micronized (jet-milled), dispersed in mineral spirit
Description: Var(HCl)2·xH2O, VarBase, and VarHCl·3H2O were purchased and then micronized using a commercial dry jet-miller. The jet milling was achieved using typical jet milling conditions and a single milling process. As shown in Example 5, micronization leads to partial dehydration of VarHCl·3H2O. As such, following micronization and absent rehydration, the compound is designated as VarHCl·xH2O.
The APIs were dispersed in mineral spirit, and particle size analysis was performed by laser diffraction using a Microtrac×100 Particle Size Analyzer. Particle size span was calculated as
[formula] where Dv0.1, Dv0.5 and Dv0.9 are 10%, 50% and 90% of the volume size distributed below the respective values.

[3] = Dynamic vapor sorption (DVS) moisture sorption and desorption; conditions: 20° C.; for moisture sorption and desorption behavior: micronized, 0-80% P/Po
Description: DVS Analysis: No DVS results of these APIs have been previously reported. Moisture sorption and desorption behavior was assessed using a DVS-Advantage 1 (Surface Measurement Systems, Allentown, Pa.). Experimental parameters: sample % P/Po in a range of 0-80; 5% P/Po increment, equilibrium criteria, both sorption and desorption. Experiments conducted at 20° C.

[4] = Intrinsic stability testing (acid, base, oxidative degradation in solution) by HPLC; conditions: acidic, basic and oxidative conditions per ICH Guidance
Description: Method: VarHCl·3H2O, HPLC grade water, 36.5% HCl, NaOH pellets, 6% H2O2 were all purchased, and 1N HCl and 1N NaOH were prepared in house. Intrinsic stability testing was performed according to International Conference on Harmonization (ICH) Guidance for Industry Q1A(R2) Stability Testing of New Drug Substances and Products (November 2003, Rev. 2). Briefly, the compound was tested for acid hydrolysis (1N HCl) and base hydrolysis (1N NaOH) at r.t. for 48 hr and at 60° C. for 4 hr. Oxidation assessment (6% H2O2) was performed at r.t. for 48 hr. The stability of VarHCl·3H2O in solution was assessed using HPLC analysis as described above in Example 1, Section A.

[5] = 3 mg dose, dihydrochloride hydrate

ED(%) [1, 5]: 71.4%
FPF(ED)(%) [1, 5]: 63.6%
MMAD [1, 5]: 1.37 μm
RF(%) [1, 5]: 45.4%
Structure (SMILES): CCCc1nc(C)c2c(=O)[nH]c(-c3cc(S(=O)(=O)N4CCN(CC)CC4)ccc3OCC)nn12 [Var(HCl)2•xH2O (rehydrated), dihydrochloride hydrate]

DV50 [2]: 1.557 μm
Span [2]: 1.557
moisture sorption and desorption behavior [3]: no hydration occurred
ED(%) ([1]; 3 mg dose): 81.8%
FPF(ED)(%) ([1]; 3 mg dose): 56.0%
MMAD ([1]; 3 mg dose): 1.32 μm
RF(%) ([1]; 3 mg dose): 45.8%
ED(%) ([1]; 10 mg dose): 64.2%
FPF(ED)(%) ([1]; 10 mg dose): 37.2%
MMAD ([1]; 10 mg dose): 1.51 μm
RF(%) ([1]; 10 mg dose): 23.9%
Structure (SMILES): CCCc1nc(C)c2c(=O)[nH]c(-c3cc(S(=O)(=O)N4CCN(CC)CC4)ccc3OCC)nn12 [VarBase, 2-[2-ethoxy-5-(4-ethylpiperazin-1-yl)sulfonylphenyl]-5-methyl-7-propyl-1H-imidazo[5,1-i][1,2,4]triazin-4-one]

moisture sorption and desorption behavior ([3]; hydrochloride): highly hygroscopic
relative humidity at which a first water molecule bound to form a monohydrate ([3]; sorption phase): 5%
Structure (SMILES): CCCc1nc(C)c2c(=O)[nH]c(-c3cc(S(=O)(=O)N4CCN(CC)CC4)ccc3OCC)nn12 [VarHCl, vardenafil hydrochloride]

relative humidity below which water loss occurred ([3]; desorption phase): lower than 15%
humidity range in which the trihydrate form is stable / maintained ([3]; desorption phase, hydrochloride trihydrate): 10-80 % RH
relative humidity up to which integrity is maintained (not reaching deliquescence) ([3]; sorption phase): up to 80 % RH
Structure (SMILES): CCCc1nc(C)c2c(=O)[nH]c(-c3cc(S(=O)(=O)N4CCN(CC)CC4)ccc3OCC)nn12 [VarHCl·3H2O, vardenafil hydrochloride trihydrate]
extent of degradation [4]: significant in basic and oxidative conditions
